Measurements published in article PMC5812233, “A novel CAV derived cell-penetrating peptide efficiently delivers exogenous molecules through caveolae-mediated endocytosis” (Veterinary Research, 2018).
“Also recorded” adds a separate entry of the source. No end group written: not given here. *: point of attachment. FITC = O=C1OC2(c3ccc(O)cc3Oc3cc(O)ccc32)c2ccc(NC(=S)*)cc21

What was measured:
HCT116 cells [1] = test: Flow cytometry of cellular uptake of FITC-labeled peptides; assay type: cell-based; conditions: for mean percent of relative internalization: 10 000 events, three experiments in triplicate (Figure 3D)
Experimental: The comparison of cell-penetrating efficiency of peptides in HCT116 cells was tested by incubating the cells with CVP1 or TAT peptides. […] The cells were washed twice by centrifugation and finally resuspended in 400 µL PBS for assaying of cellular fluorescent intensity by flow cytometry (BD FACSAria SORP, Becton–Dickinson, USA). A total of 10 000 events were recorded. Data was obtained and analyzed using Flowjo software.

furin = conditions: motif (RKKR and RQRR) in the TAT sequence; cited from earlier work
Source text: Generally, CPPs are composed of 5–30 amino acids (aa) with enriched lysine or arginine residues, and divided into three classes including amphipathic CPP, cationic CPP and hydrophobic CPP [2, 3]. […] As the pioneer of CPPs, HIV-TAT with 86 amino acids plays vital roles in the replication of HIV. It wa ...

HCT116 cells [2] = test: Plasmid (pCDNA3.1-RFP) transfection, fluorescence microscopy and flow cytometry; assay type: cell-based; conditions: 40 µM peptide, 1 µg plasmid DNA; for RFP fluorescence of cells treated with peptide-pCDNA3.1-RFP complex: 48 h post-transfection, fluorescence microscope
Experimental: (§1) The linking of DNA with CVP1 was made by the charge interaction. To confirm the formation of the peptide and plasmid complexes, the CVP1 peptide (5 μM) and plasmid DNA (200 ng) were diluted in 10 µL Opti-MEM and co-incubated at 37 °C for 45 min, and then agarose gel retardation assay was performed as described previously. The transfection experiment was conducted to test the transfection efficiency of CVP1-DNA on HCT116 cells as described previously. Briefly, 1 μg of plasmid DNA and 40 µM of CVP1 peptide or TAT peptide were diluted in 50 µL Opti-MEM, respectively and incubated at RT for 30 min. The lipofectamine 2000 (Invitrogen, USA) was used as a positive control, following the manual provided by the manufacture. […] Meanwhile, the fluorescence intensity was measured by Flow cytometry as described previously.

HCT116 cells [3] = test: β-galactosidase delivery, X-gal staining; assay type: cell-based; conditions: 20 µM peptide non-covalently complexed with 1 µg β-galactosidase, 1 h + 90 min at 37 °C, phase-contrast microscopy
Experimental: Protein delivery ability of CVP1 was assessed using β-galactosidase enzyme as previously described. In brief, CVP1 and Mut-CVP1 at a concentration of 20 µM were non-covalently complexed with β-galactosidase (1 µL, 1 µg/µL) enzyme respectively. The mixtures were incubated for 30 min at room temperature (RT) for complex formation. The peptide-enzyme complex was added to the HCT116 cells with Opti-MEM media (100 µL) and the cells were incubated for 1 h at 37 °C. After incubation, complete media (150 µL) was added to the cells, and further incubated for 90 min at 37 °C. The cells were washed thoroughly with PBS to remove extracellular peptide-enzyme complex and fixed in PBS containing 1% formaldehyde and 0.2% glutaraldehyde for 15 min at RT. The cells were washed subsequently three times with PBS and stained with X-gal staining buffer (40 mM potassium ferricyanide, 40 mM potassium ferrocyanide, 20 mM magnesium chloride, 2 mg/mL of X-gal in PBS) for 90 min at 37 °C. Finally, the cells were analyzed under a phase-contrast microscope (Olympus) at 200× magnification and imaged.

HCT116 cells [4] = conditions: 5 µM FITC-labeled peptide, 30 min, 37 °C, serum-free medium, confocal microscopy
Experimental: (§2) 293T cells, HCT-116 cells, 3T3 cells, MDCK cells and MSB1 cells were maintained in our laboratory and were grown in Dulbecco’s modified Eagle’s medium supplemented with 10% heated-inactivated fetal bovine serum (FBS) and 1% penicillin–streptomycin solution at 37 °C and 5% CO2.
(§3) Firstly, 2.0 × 10^5 of 293T cells, HCT-116 cells, 3T3 cells or MDCK cells were seeded onto glass cover slides in 24-well plates and cultured for 12 h. The cells were then washed with phosphate buffered saline (PBS) and incubated with 5 µM of FITC-labeled CVP1, TAT and Mut-CVP1 peptides in 500 µL serum-free medium for 30 min. The concentration-dependent intake of CVP1 peptide in HCT-116 cells was then evaluated. In brief, after incubation of cells with FITC-CVP1 peptide for 30 min, cells were washed for three times and stained with Hoechst 33342 (5 µg/mL) for 10 min. Finally, cells were washed three times with PBS and imaged using confocal laser scanning microscope (Leica, TCS SP8 STED and Germany) at 60× magnification.

HCT116 cells [5] = test: Cell internalization pathway: endocytosis inhibitors and temperature, flow cytometry; assay type: cell-based
Experimental: The mechanism of uptake of CVP1 in HCT116 cells was investigated by means of physical and chemical inhibition of endocytosis. Incubation of peptide and cells at 37 or 4 °C were treated to measure the influence of temperature on peptide internalization (used as a physical means of inhibition of endocytosis). HCT116 cells cultured in 12-well plates were pretreated for 30 min with inhibitors: 30 µM chlorpromazine (a clathrin-mediated endocytosis inhibitor, which prevents the assembly of clathrin-coated pits at the inner surface of the cell membrane), 5 mM methylated-β-cyclodextrin (a caveolae-mediated endocytosis inhibitor, a cholesterol depletion agent), 10 µM 5-(N-ethyl-N-isopropyl) amilorid (a macropinocytosis inhibitor, which selectively blocks the Na^+/H^+ antiporter) and 50 µM LY294002 (a macropinocytosis inhibitor, a strong phosphatidylinositol-3 kinase inhibitor) as previously described. The cells were further incubated with the peptide for 50 min and then analyzed by flow cytometry. To investigate the effect of incubation time, the HCT116 cells were incubated with CVP1 at 37 °C for different time periods.

poly (I:C) = test: Gel retardation electrophoresis of peptide-poly (I:C) complex; assay type: binding; conditions: 10 µM peptide, 5 µg poly (I:C), 45 min 37 °C
HD11 cells = test: Poly (I:C) delivery, IFN-β mRNA by real-time PCR; assay type: cell-based; conditions: 10 µM peptide, 5 µg poly (I:C), 6 h
Experimental: To analyze the ability of CVP1 to delivery poly(I;C), the CVP1 (10 µM) was first mixed with the poly (I:C) (5 µg) for 45 min at 37 °C for generating the complex. And then, the HD11 cells were incubated with peptide-poly (I:C) complexes, peptide (10 µM) only or poly (I:C) (5 µg) with transfecting reagent. After 6 h of incubation, the cells were collected and total RNA extracted using total RNA purification kit (Axygen, USA). 1 µg of RNA was reverse transcribed into cDNA with a reverse transcription reagent kit (Takara, Japan). The relative mRNA level of IFN-β was detected by Real-time PCR.

pCDNA3.1-RFP plasmid = test: Agarose gel retardation (gel-shift) assay of peptide-plasmid complex; assay type: binding; conditions: 5 µM peptide, 200 ng plasmid DNA, 37 °C 45 min, ethidium bromide
Experimental: as §1

HCT116 cells [6] = conditions: up to 40 µM (5, 10, 20, 40 µM), 12, 24 and 48 h (Figure 3C)
Experimental: Effect of CVP1 on the viability of cells was evaluated by MTT assay as described previously.

MDCK cells = conditions: 5 µM FITC-labeled peptide, 30 min, 37 °C, serum-free medium, confocal microscopy
Experimental: as §2, §3

293T cells = conditions: 5 µM FITC-labeled peptide, 30 min, 37 °C, serum-free medium, confocal microscopy
Experimental: as §2, §3

3T3 cells = conditions: 5 µM FITC-labeled peptide, 30 min, 37 °C, serum-free medium, confocal microscopy
Experimental: as §2, §3

[7] = HCT116 cells, 0.1 µM FITC-labeled peptide, flow cytometry after trypsin 5 min to remove non-internalized peptide
[8] = HCT116 cells, 1 µM FITC-labeled peptide, flow cytometry after trypsin 5 min
[9] = HCT116 cells, 2 µM FITC-labeled peptide, flow cytometry after trypsin 5 min
[10] = HCT116 cells, 5 µM FITC-labeled peptide, flow cytometry after trypsin 5 min
[11] = HCT116 cells, 10 µM FITC-labeled peptide, flow cytometry after trypsin 5 min

FITC-YGRKKRRQRRR [TAT, reference compound]
mean percent of relative internalization (HCT116 cells [1]; [7]): 0.1%
mean percent of relative internalization (HCT116 cells [1]; [8]): 0.4%
mean percent of relative internalization (HCT116 cells [1]; [9]): 1.7%
mean percent of relative internalization (HCT116 cells [1]; [10]): 25%
mean percent of relative internalization (HCT116 cells [1]; [11]): 61%
stability toward furin (furin): cleaved by furin

{FITC}-MAAGAGAPAGAFYAFGAGA [Mut-CVP1]
cell-penetrating activity (overall) (HCT116 cells [1]; HCT116 cells, FITC-labeled peptide, confocal imaging and flow cytometry): did not show any cell-penetrating activity
RFP fluorescence of cells treated with peptide-pCDNA3.1-RFP complex (HCT116 cells [2]): no fluorescence
X-gal staining of cells treated with peptide-β-galactosidase complex (HCT116 cells [3]): very weak blue background
specific green fluorescence dots in cells (internalization) (HCT116 cells [4]): not

{FITC}-MARRARRPRGRFYAFRRGR [CVP1, N terminus (aa 1–19) of VP1 from chicken anemia virus, FITC-labeled cell-penetrating peptide]
mean percent of relative internalization (HCT116 cells [1]; [7]): 0.1%
mean percent of relative internalization (HCT116 cells [1]; [8]): 2.1%
mean percent of relative internalization (HCT116 cells [1]; [9]): 18.7%
mean percent of relative internalization (HCT116 cells [1]; [10]): 86%
intensity of fluorescence in cells versus incubation time (HCT116 cells [1]; HCT116 cells, 5 µM peptide, 5, 10, 15, 20, 25, 30 min, flow cytometry (Figure 3B)): increased as the incubation time was increased from 5 to 30 min
mean percent of relative internalization (HCT116 cells [1]; [11]): 98%
cell-penetrating efficiency versus concentration (HCT116 cells [1]; HCT116 cells, 1, 2, 5, 10, 20, 40 µM, 30 min, 37 °C, flow cytometry (Figure 3A)): dose-dependent
efficacy of delivering plasmid, comparison with other carriers (HCT116 cells [2]; 48 h, flow cytometry, comparators TAT peptide, lipofectamine 2000): significantly higher signal of fluorescence than the TAT/RFP sample; also recorded: not as equal as commercial transfection reagents
RFP fluorescence of cells treated with peptide-pCDNA3.1-RFP complex (HCT116 cells [2]): strong fluorescence
effect of EIPA on cellular intake of the peptide (HCT116 cells [5]; HCT116 cells pretreated 30 min with 10 µM 5-(N-ethyl-N-isopropyl) amiloride (macropinocytosis inhibitor), then peptide 50 min): unable to inhibit
effect of CPZ on cellular intake of the peptide (HCT116 cells [5]; HCT116 cells pretreated 30 min with 30 µM chlorpromazine (clathrin-mediated endocytosis inhibitor), then peptide 50 min): unable to inhibit
effect of LY294002 on cellular intake of the peptide (HCT116 cells [5]; HCT116 cells pretreated 30 min with 50 µM LY294002 (macropinocytosis inhibitor), then peptide 50 min): only slightly blocked
effect of MβCD on cellular intake of the peptide (HCT116 cells [5]; HCT116 cells pretreated 30 min with 5 mM methylated-β-cyclodextrin (caveolae-mediated endocytosis inhibitor), then peptide 50 min): significantly reduced
cell-penetrating activity at 4 °C (HCT116 cells [5]; HCT116 cells, 10 µM peptide, 4 °C compared with 37 °C): efficiently inhibited
complex formation with poly (I:C) (poly (I:C)): could conjugate with the poly (I:C) to form a complex
capacity of delivering poly (I:C), comparison with other carriers (HD11 cells; IFN-β mRNA by real-time PCR, comparators TAT, transfection reagent): higher than the TAT; also recorded: not as equal as commercial transfection reagents
IFN-β mRNA expression of cells treated with peptide/poly (I:C) complexes versus naked peptide or poly (I:C) only (HD11 cells; real-time PCR): significantly increased
migration of plasmid conjugated with peptide (DNA binding capacity) (pCDNA3.1-RFP plasmid): much lower migration speed than naked plasmid
X-gal staining of cells treated with peptide-β-galactosidase complex (HCT116 cells [3]): strong blue color
toxicity to cells (cell viability, MTT) (HCT116 cells [6]): non-toxic
specific green fluorescence dots in cells (internalization) (MDCK cells): clearly observed
specific green fluorescence dots in cells (internalization) (HCT116 cells [4]): clearly observed
specific green fluorescence dots in cells (internalization) (293T cells): clearly observed
specific green fluorescence dots in cells (internalization) (3T3 cells): clearly observed
